Active and inactive are the calls of the source. The rule behind the calls is not given here.
Legend:
PC-3 [1] = assay: Cytotoxicity against human PC-3 cells assessed as reduction in cell viability at 100 uM measured after 24 hrs by MTT assay; type: functional, cell-based
PC-3 [2] = assay: Cytotoxicity against human PC-3 cells assessed as reduction in cell viability at 25 uM measured after 24 hrs by MTT assay relative to control; type: functional
PC-3 [3] = assay: Cytotoxicity against human PC-3 cells assessed as reduction in cell viability at 10 uM measured after 24 hrs by MTT assay relative to control; type: functional
PC-3 [4] = assay: Cytotoxicity against human PC-3 cells assessed as reduction in cell viability at 50 uM measured after 24 hrs by MTT assay relative to control; type: functional
PC-3 [5] = assay: Cytotoxicity against human PC-3 cells assessed as reduction in cell viability measured after 24 hrs by MTT assay; type: functional, cell-based; conditions: PC-3, 24 h
PC-3 [6] = assay: Cytotoxicity against human PC-3 cells assessed as reduction in cell viability at 100 uM measured after 24 hrs by MTT assay relative to control; type: functional

Compound	Activity (PC-3 [1])	Activity (PC-3 [2])	Activity (PC-3 [3])	Activity (PC-3 [4])	IC50 (PC-3 [5])	Activity (PC-3 [6])
C/C(=C\c1cnn(-c2ccccc2)n1)C(=O)c1ccc(C(F)(F)F)cc1	inactive	–	–	–	–	–
Cc1ccc(C(=O)/C=C/c2cnn(-c3ccccc3)n2)c(C)c1	–	39.03%	85.61%	3%	15.6 µM	0%
C/C(=C\c1cnn(-c2ccccc2)n1)C(=O)c1ccccc1	inactive	–	–	–	–	–
COc1cccc2c1C(=O)c1c(O)c3c(c(O)c1C2=O)C[C@@](O)(C(=O)CO)C[C@@H]3O[C@H]1C[C@H](N)[C@H](O)[C@H](C)O1 [DOXORUBICIN]	–	–	–	–	0.77 µM	–
O=C(/C=C/c1cnn(-c2ccccc2)n1)c1ccccc1	–	44.7%	73.62%	–	28.6 µM	6.38%
C/C(=C\c1cnn(-c2ccccc2)n1)C(=O)c1ccc(F)cc1	inactive	–	–	–	–	–
O=C(/C=C/c1cnn(-c2ccccc2)n1)c1cccs1	–	–	–	50%	47.9 µM	24.23%
COc1cc(-c2cccs2)cc(-c2nnn(Cc3ccccc3)c2C)n1	–	–	–	–	1.03 µM	–
COc1ccc(C(=O)/C=C/c2cnn(-c3ccccc3)n2)c(OC)c1	–	16.03%	73.03%	–	25.6 µM	5.37%

— ChEMBL document CHEMBL4699455, “2H-1,2,3-Triazole-chalcones as novel cytotoxic agents against prostate cancer” (Bioorg Med Chem Lett, 2020)
